Data taken from US7989212B2, “Detection of blood plasma schizadrin B of dissipating blood stasis botanical” (Shanghai Sundise, priority 2007, dated 2011).

Test: UPLC/MS detection of schizadrin B in blood plasma after administration of strengthening body resistance and dissipating blood stasis botanical
Type: in vivo
Conditions: plasma of mammals after drenching with the botanical; FIG. 1: rat plasma 0.5 hours after administration; ethyl acetate extraction, UPLC/MS positive ion mode
Method: Detection method of blood plasma schizadrin B of strengthening body resistance and dissipating blood stasis botanical includes the following steps: • (1) Pretreatment of mammalian plasma samples • a. Mammal plasma containing drugs after being administered the strengthening body resistance and dissipating blood stasis botanical was extracted with ethyl acetate at the volume ratio of 1:4, whirling for 3 to 5 min, then centrifuging at 9600 rpm for 10 min; and drying and enriching the supernatant under the condition of 25 to 30° C.; • b. Redissolve eluent with mobile phase and then analyze it with UPLC/MS; • (2) UPLC/MS detection
UPLC condition: chromatographic column: ACQUITY UPLC BEH C18 (a type of chromatographic column), 2.1×100 mm, mobile phase A: Water-Acetonitrile-Formic acid 95:5:0.1 v/v/v, mobile phase B: Acetonitrile-Formic acid 100:0.1 v/v; MS condition: electrospray ionization (ESI) ion source, detection with positive ion mode, scanning at the range of m/z 150 to 1200.
The described step (2) detects with the positive ion mode; the desolvation gas flow is 440 L/h, the desolvation gas temperature is 300° C., the cone gas flow is 50 L/h, the ion source temperature is 100° C., the spray capillary voltage is 3800 V, the sampling cone voltage is 30V, the extracting cone voltage is 2.00 V, the lens voltage is 0.1 V, and the mass scanning at the range of m/z 150 to 1200.
1. […]

detection of schizadrin B in blood plasma: can be detected
SMILES: COc1cc2c(c(OC)c1OC)-c1c(cc3c(c1OC)OCO3)CC(C)C(C)C2 (stereo not shown) [Schizadrin B]
